Among the data in ChEMBL document CHEMBL5291721, “A preclinical secondary pharmacology resource illuminates target-adverse drug reaction associations of marketed drugs” (Nat Commun, 2023) are AC50 values, retold here.

A value given as a limit tells only on which side of the number the result lay.

In experiment [1] the target is T1, Amine oxidase [flavin-containing] A (Homo sapiens, UniProt P21397).
T1 sequence (P21397 whole entry): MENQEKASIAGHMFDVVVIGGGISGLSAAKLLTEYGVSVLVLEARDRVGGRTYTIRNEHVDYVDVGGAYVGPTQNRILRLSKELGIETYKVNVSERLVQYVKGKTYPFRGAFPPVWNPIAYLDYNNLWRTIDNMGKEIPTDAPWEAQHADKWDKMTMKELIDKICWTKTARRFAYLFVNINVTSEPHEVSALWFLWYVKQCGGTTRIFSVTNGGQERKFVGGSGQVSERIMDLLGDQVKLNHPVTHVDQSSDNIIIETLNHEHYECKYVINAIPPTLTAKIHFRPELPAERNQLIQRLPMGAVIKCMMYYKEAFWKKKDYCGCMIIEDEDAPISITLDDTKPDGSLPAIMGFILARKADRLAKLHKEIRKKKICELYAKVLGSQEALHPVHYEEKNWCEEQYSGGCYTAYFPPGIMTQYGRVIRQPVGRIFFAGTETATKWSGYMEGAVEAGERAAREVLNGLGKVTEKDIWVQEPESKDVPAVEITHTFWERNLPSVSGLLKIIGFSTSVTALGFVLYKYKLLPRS
Format: functional.

In experiment [2] the target is T2, Muscarinic acetylcholine receptor M1 (Homo sapiens, UniProt P11229).
T2 sequence (P11229 whole entry): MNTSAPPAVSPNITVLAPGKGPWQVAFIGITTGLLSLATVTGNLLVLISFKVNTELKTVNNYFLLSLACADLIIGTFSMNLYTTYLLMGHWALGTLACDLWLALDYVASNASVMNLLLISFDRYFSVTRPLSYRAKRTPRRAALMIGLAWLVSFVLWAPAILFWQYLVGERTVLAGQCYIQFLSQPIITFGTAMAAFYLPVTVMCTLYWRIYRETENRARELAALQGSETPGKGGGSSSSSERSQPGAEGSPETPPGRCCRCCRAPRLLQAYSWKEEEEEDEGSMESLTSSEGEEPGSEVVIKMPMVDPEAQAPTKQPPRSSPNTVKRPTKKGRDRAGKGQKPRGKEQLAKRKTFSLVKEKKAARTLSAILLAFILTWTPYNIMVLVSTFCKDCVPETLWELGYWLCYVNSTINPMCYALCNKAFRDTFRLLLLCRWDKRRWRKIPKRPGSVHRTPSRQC
Format: functional, cell-based.

The target of experiment [3] is Sodium-dependent dopamine transporter (Homo sapiens, UniProt Q01959).
For another experiment, the target named is Histamine H3 receptor (Homo sapiens, UniProt Q9Y5N1).
The target in experiment [4] is Vascular endothelial growth factor receptor 2 (Homo sapiens, UniProt P35968). Format: functional.
The target in experiment [5] is T3, Muscarinic acetylcholine receptor M2 (Homo sapiens, UniProt P08172).
T3 sequence (P08172 whole entry): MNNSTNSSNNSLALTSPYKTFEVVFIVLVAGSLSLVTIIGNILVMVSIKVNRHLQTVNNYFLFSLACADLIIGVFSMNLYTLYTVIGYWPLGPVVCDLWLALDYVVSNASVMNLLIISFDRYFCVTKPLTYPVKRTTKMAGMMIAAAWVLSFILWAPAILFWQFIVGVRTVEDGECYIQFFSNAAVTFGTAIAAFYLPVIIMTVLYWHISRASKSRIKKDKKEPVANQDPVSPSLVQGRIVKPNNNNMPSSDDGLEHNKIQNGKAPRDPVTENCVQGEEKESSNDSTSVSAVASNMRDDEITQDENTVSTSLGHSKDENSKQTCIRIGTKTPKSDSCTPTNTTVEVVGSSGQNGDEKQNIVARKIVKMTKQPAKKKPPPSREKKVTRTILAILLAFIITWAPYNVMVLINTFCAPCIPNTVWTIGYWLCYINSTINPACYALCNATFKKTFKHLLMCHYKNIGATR
Format: functional, cell-based.

Experiment [6] deals with Voltage-dependent L-type calcium channel subunit alpha-1C (Rattus norvegicus, UniProt P22002). Format: functional.
Experiment [7] deals with T4, Gastrin/cholecystokinin type B receptor (Homo sapiens, UniProt P32239).
T4 sequence (P32239 whole entry): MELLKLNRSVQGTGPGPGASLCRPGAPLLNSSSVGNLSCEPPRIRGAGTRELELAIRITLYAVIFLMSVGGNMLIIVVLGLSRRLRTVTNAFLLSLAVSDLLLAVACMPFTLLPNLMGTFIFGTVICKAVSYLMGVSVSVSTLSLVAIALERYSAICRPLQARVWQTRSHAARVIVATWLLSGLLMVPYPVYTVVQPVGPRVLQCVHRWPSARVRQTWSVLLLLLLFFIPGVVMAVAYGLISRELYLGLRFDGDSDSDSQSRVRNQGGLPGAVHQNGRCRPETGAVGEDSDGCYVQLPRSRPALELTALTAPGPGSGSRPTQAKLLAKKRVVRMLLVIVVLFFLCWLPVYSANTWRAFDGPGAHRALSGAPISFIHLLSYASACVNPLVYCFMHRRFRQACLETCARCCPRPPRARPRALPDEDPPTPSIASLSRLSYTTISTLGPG

Experiment [8] deals with T5, Alpha-1A adrenergic receptor (Homo sapiens, UniProt P35348).
T5 sequence (P35348 whole entry): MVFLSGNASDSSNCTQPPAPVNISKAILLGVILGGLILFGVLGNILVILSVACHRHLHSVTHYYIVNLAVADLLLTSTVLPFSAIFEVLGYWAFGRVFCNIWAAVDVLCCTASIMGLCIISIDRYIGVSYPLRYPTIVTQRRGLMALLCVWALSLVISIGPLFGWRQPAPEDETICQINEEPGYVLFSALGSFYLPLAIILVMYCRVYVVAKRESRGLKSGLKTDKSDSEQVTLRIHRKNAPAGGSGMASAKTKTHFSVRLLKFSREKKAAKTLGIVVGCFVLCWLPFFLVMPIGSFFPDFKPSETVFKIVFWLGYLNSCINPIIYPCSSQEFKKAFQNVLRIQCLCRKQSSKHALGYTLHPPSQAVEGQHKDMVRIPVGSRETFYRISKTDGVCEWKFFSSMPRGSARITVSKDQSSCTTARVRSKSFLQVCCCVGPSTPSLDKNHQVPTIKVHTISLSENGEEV
Format: functional, cell-based.
Also: assay procedure not described here.

Chain of Vascular endothelial growth factor receptor 2 (P35968 whole entry): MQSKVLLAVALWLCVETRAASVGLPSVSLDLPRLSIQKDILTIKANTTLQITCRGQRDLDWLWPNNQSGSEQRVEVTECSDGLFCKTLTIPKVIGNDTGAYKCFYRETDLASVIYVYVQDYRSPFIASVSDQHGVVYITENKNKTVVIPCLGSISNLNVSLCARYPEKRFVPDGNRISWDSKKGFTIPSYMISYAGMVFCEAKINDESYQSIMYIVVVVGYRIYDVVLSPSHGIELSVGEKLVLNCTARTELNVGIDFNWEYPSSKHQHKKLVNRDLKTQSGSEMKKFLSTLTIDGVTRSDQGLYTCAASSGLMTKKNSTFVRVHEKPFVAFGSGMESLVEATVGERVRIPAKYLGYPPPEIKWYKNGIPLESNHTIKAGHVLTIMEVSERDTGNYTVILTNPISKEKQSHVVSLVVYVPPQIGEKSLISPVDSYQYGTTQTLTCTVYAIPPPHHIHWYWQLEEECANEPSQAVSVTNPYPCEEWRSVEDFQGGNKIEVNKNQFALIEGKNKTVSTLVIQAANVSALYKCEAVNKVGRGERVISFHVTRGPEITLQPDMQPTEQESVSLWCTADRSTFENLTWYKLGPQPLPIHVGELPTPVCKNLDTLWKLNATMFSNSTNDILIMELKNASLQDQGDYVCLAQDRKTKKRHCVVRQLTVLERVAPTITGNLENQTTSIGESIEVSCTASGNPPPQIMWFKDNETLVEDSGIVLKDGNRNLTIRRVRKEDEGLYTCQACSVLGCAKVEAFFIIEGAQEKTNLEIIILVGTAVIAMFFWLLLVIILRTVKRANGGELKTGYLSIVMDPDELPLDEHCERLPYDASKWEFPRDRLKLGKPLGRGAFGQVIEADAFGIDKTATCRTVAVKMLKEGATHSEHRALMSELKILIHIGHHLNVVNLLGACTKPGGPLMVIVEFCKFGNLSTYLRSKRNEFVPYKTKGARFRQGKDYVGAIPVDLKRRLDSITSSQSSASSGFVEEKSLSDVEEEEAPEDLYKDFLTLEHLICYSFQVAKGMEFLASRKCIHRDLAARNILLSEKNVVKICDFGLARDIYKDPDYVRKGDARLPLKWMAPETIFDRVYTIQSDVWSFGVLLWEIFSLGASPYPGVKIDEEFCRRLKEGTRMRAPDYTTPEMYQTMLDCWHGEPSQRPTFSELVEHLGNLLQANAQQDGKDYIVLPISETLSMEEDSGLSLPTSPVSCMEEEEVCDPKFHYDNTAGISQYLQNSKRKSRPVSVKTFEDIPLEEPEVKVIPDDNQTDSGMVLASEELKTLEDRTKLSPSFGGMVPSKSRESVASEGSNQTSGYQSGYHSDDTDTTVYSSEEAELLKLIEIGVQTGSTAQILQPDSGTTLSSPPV
Chain of Sodium-dependent dopamine transporter (Q01959 whole entry): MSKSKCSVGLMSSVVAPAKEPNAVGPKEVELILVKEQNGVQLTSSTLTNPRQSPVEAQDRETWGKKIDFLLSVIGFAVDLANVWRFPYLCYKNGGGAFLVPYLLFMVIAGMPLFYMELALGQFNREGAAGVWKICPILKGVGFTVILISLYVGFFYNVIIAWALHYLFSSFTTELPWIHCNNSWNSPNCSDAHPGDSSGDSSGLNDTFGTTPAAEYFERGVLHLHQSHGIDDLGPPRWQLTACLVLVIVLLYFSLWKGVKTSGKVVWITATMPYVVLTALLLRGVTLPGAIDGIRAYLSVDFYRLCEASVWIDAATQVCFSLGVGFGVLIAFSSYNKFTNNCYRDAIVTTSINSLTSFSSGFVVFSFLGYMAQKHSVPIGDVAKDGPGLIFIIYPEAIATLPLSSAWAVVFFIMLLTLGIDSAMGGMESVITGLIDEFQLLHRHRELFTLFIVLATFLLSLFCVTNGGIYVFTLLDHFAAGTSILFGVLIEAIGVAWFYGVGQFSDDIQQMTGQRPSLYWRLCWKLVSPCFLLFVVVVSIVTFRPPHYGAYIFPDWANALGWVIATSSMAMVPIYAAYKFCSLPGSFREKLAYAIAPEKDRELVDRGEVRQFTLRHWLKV
Chain of Histamine H3 receptor (Q9Y5N1 whole entry): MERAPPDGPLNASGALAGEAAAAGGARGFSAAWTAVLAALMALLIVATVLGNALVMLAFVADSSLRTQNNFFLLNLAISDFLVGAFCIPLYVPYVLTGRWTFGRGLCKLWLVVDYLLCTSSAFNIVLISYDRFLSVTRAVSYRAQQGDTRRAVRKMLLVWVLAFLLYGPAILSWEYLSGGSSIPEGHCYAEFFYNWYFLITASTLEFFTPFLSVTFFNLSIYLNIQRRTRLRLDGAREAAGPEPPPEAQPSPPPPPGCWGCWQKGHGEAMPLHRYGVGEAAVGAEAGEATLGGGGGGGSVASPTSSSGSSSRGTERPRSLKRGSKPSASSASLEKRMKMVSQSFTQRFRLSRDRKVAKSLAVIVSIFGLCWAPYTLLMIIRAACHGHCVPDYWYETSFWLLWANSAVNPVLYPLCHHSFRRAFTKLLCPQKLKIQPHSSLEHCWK
Chain of Voltage-dependent L-type calcium channel subunit alpha-1C (P22002 whole entry): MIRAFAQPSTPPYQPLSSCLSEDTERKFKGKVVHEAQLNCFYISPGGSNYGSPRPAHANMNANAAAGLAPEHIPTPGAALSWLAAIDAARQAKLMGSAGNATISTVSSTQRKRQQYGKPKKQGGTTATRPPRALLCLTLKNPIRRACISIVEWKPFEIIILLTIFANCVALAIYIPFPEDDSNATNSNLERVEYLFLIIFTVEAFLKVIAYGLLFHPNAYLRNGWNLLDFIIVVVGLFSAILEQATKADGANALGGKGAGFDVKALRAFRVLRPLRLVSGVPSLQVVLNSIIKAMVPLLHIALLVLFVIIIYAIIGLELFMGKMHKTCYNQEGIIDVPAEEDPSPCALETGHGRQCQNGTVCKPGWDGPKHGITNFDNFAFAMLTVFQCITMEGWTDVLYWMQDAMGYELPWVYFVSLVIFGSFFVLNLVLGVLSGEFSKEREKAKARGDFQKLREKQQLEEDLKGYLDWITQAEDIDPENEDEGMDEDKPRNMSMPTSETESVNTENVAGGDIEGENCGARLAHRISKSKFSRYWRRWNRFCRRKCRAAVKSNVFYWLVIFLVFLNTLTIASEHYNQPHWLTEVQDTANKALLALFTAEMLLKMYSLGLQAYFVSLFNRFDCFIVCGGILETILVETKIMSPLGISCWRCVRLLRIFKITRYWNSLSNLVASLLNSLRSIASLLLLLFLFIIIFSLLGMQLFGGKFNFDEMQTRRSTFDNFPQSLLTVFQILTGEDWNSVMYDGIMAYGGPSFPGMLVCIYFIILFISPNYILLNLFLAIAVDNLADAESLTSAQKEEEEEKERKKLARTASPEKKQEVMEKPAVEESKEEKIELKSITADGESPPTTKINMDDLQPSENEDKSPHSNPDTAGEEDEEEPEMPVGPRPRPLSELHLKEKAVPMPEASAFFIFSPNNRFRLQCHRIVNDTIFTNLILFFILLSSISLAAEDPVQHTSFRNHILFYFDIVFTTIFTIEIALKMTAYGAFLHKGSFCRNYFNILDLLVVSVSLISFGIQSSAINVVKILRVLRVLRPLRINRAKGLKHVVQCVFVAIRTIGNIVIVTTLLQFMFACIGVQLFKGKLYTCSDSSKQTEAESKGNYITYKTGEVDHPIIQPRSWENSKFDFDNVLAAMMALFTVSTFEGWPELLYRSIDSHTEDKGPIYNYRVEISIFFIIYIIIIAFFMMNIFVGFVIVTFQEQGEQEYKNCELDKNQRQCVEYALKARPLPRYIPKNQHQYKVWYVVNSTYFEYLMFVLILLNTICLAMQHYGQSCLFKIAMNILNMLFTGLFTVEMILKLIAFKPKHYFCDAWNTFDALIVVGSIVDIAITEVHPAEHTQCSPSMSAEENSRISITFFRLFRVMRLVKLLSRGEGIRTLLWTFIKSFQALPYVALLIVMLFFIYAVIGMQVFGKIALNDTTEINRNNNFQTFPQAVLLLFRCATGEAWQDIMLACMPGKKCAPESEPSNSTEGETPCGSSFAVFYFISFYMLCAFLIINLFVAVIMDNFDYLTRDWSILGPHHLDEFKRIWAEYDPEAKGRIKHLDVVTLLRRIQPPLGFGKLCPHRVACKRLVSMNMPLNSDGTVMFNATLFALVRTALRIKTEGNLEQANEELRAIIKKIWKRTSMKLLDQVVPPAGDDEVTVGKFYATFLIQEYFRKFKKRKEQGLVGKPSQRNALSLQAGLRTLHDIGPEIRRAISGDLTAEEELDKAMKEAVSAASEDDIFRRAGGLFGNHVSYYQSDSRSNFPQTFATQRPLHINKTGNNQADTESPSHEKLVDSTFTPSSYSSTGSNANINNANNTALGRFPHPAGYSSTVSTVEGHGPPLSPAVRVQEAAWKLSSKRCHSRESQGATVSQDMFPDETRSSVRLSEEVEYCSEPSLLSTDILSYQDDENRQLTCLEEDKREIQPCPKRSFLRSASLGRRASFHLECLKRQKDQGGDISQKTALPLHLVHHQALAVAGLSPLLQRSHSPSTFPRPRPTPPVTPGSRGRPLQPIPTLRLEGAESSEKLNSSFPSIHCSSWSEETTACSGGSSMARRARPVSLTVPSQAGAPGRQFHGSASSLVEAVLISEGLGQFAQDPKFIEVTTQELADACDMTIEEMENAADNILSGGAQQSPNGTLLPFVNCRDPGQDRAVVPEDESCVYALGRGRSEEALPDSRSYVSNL

As to `CC(C)N(CCNC(=O)CN1CCCC1=O)C(C)C`, the AC50 (in [1]; in [2]; in experiment [3]; on Histamine H3 receptor; in [4]) was above 30 µM each time.

`Cc1cc(N)c2ccccc2[n+]1CCCCCCCCCC[n+]1c(C)cc(N)c2ccccc21`: the AC50 in experiment [1] was 16.8 µM; in [2] it was 0.611 µM; in experiment [3], 0.89 µM; at Histamine H3 receptor, 0.0813 µM; in experiment [4], above 30 µM.

On to `CCOC(=O)[C@H](CCc1ccccc1)N[C@@H](C)C(=O)N(CC(=O)O)C1Cc2ccccc2C1`, for which the AC50 (in [1]; in experiment [2]; in experiment [3]; on Histamine H3 receptor; in experiment [4]) was above 30 µM each time.

As for `CC(=O)O[C@]1(C(C)=O)CC[C@H]2[C@@H]3C=C(Cl)C4=CC(=O)CC[C@]4(C)[C@H]3CC[C@@]21C` [CHLORMADINONE ACETATE], the AC50 (in [1]; in experiment [3]; on Histamine H3 receptor; in experiment [4]) was above 30 µM throughout.

Turning to `Cc1ccccc1N1CCN(CCc2nnc3n2CCCC3)CC1` [DAPIPRAZOLE], the AC50 (in experiment [1]; in experiment [3]; on Histamine H3 receptor; in experiment [4]) was above 30 µM in each case.

For `CCN(CC)C(=S)S` [DITIOCARB], the AC50 in experiment [1] was above 30 µM; in experiment [2] it was above 1 µM; in [3], above 30 µM; at Histamine H3 receptor, above 30 µM.

Turning to `C=C1CC[C@H](O)C/C1=C/C=C1\CCC[C@]2(C)[C@@H]([C@H](C)/C=C/[C@H](C)C(C)C)CC[C@@H]12` [ERGOCALCIFEROL], the AC50 (in [1]; in experiment [3]; on Histamine H3 receptor) was above 30 µM each time.

Consider `CC(C(=O)O)c1ccc(-c2ccccc2)c(F)c1` (configuration not stated) [FLURBIPROFEN], for which the AC50 is above 10 µM in [5]; above 30 µM in experiment [1]; above 30 µM in experiment [3]; above 30 µM at Histamine H3 receptor; above 10 µM in experiment [6].

In the case of `Cc1cnc(C(=O)NCCc2ccc(S(=O)(=O)NC(=O)NC3CCCCC3)cc2)cn1` [GLIPIZIDE], the AC50 (in experiment [1]; on Histamine H3 receptor; in experiment [7]) was above 30 µM in each case.

Consider `CC(C)(C)NC[C@H](O)COc1cccc2c1CCCC2=O` [LEVOBUNOLOL], for which the AC50 (in experiment [1]; in experiment [3]; on Histamine H3 receptor; in experiment [4]) was above 30 µM in each case.

`CN1CCN(C2=Nc3ccccc3Oc3ccc(Cl)cc32)CC1` [LOXAPINE]: the AC50 is above 30 µM in experiment [1]; 23.3 µM in experiment [3]; above 30 µM on Histamine H3 receptor; above 30 µM in [8]; above 30 µM in experiment [7]; above 10 µM in experiment [6]. In [4], the AC50 was above 30 µM.

With `Cc1c(N(C)CS(=O)(=O)O)c(=O)n(-c2ccccc2)n1C` [METAMIZOLE], the AC50 (in [1]; in experiment [3]; on Histamine H3 receptor; in experiment [4]) was above 30 µM throughout.

`COC(=O)c1ccc(O)cc1` [METHYLPARABEN]: the AC50 (in experiment [1]; in experiment [3]; on Histamine H3 receptor; in experiment [4]) was above 30 µM each time.

For the compound `O=[N+]([O-])c1ccc(O)c2ncccc12` [NITROXOLINE], the AC50 (in [5]; in experiment [1]; in [3]; on Histamine H3 receptor; in [8]) was above 30 µM throughout.

On to `CC(N)C(O)c1ccccc1` (configuration not stated) [PHENYLPROPANOLAMINE], for which the AC50 in experiment [5] was above 10 µM; in experiment [8], above 30 µM; in experiment [7], above 30 µM; in [6] it was above 10 µM.

For the compound `Clc1ccc2c(N3CCN(CCCN4CCN(c5ccnc6cc(Cl)ccc56)CC4)CC3)ccnc2c1` [PIPERAQUINE], the AC50 in experiment [5], in experiment [8], in experiment [7] and in [6] was above 30 µM throughout.

For the compound `CC[C@@H]([C@H](C)O)n1ncn(-c2ccc(N3CCN(c4ccc(OC[C@@H]5CO[C@@](Cn6cncn6)(c6ccc(F)cc6F)C5)cc4)CC3)cc2)c1=O` [POSACONAZOLE], the AC50 in [1] was above 30 µM; in experiment [2] it was above 1 µM; in [3] it was above 30 µM; on Histamine H3 receptor it was above 30 µM.

As to `CCCN[C@H]1CCc2nc(N)sc2C1` [PRAMIPEXOLE], the AC50 was above 10 µM in experiment [5], above 30 µM in experiment [8], above 30 µM in experiment [7] and above 10 µM in experiment [6].

Regarding `COc1ccc(CN(CCN(C)C)c2ccccn2)cc1` [PYRILAMINE], the AC50 in [1] is above 30 µM; in experiment [3], 2.41 µM; at Histamine H3 receptor, above 30 µM; in [4] it was above 30 µM.

As to `CC1(C)S[C@@H]2[C@H](NC(=O)[C@H](N)c3ccccc3)C(=O)N2[C@H]1C(=O)OCOC(=O)[C@@H]1N2C(=O)C[C@H]2S(=O)(=O)C1(C)C` [SULTAMICILLIN], the AC50 in [5], in experiment [8], in experiment [7] and in experiment [6] was above 30 µM in each case.

As to `Clc1ccc(C(Cn2ccnc2)OCc2ccsc2Cl)c(Cl)c1` (configuration not stated) [TIOCONAZOLE], the AC50 in experiment [5] is above 30 µM; in experiment [8], above 30 µM; in [7], above 30 µM; in experiment [6] it was 23 µM.

For `Cc1cccc(N2CC(CO)OC2=O)c1` (configuration not stated) [TOLOXATONE], the AC50 in [5], in experiment [8], in experiment [7] and in experiment [6] was above 30 µM in each case.

As to `CCCC(CCC)C(N)=O` [VALPROMIDE], the AC50 is above 10 µM in [5], above 30 µM in [8], above 30 µM in [7] and above 10 µM in experiment [6].

With `Cc1cc(C(C)(C)C)cc(C)c1CC1=NCCN1` [XYLOMETAZOLINE], the AC50 in experiment [5] was 12.1 µM; in [8], 0.0023 µM; in experiment [7], above 30 µM; in [6], above 30 µM.
